In article PMC9820592, “Novel Chiral Ru(II) Complexes as Potential c-myc G-quadruplex DNA Stabilizers Inducing DNA Damage to Suppress Triple-Negative Breast Cancer Progression” (International Journal of Molecular Sciences, 2022):

Columns and labels:
c-myc G-quadruplex DNA = assay: FRET melting assay; format: binding, human; details: free DNA Tm 59.5 °C
Description: Carboxy fluorescein (FAM) and 6-carboxytetramethyl rhodamine (TAMRA) double fluorescent-labeled c-myc G4 DNA (5′−FAM-TGAGGGTGGGAGGGGTAA-TAMRA−3′) were heated to 95 °C in Tris-HCl-KCl buffer (containing 10 mM Tris-HCl, 100 mM KCl, pH 7.4) for 5 min and slowly cooled to room temperature. To ds26, double-stranded DNA ([…]) is a competitive binder, research Λ/Δ−3 with c-myc G4 selectivity binding ability of DNA. A Bio-Radiq5 real-time PCR detection system was used to measure the fluorescence melting curve. Approximately 1 μM (5 μL) FPU22T was mixed with a series of 5 μL compound solutions of different concentrations, and 15 μLTris-HCl-KCl buffer was added to the PCR 8 tube to obtain a total volume of 25 μL. A real-time fluorescence quantitative PCR instrument was used, and incubation was performed at 30 °C for 30 min. The program temperature range was set to 30–95 °C at a temperature interval of 1 °C, and recording was performed after balancing for 30 s to detect the fluorescence value of FAM. The conditions of the reaction system were similar to those of the FRET melting point test except that different concentrations of ds26 were added.

γ-H2AX = γ-H2AX immunofluorescence; format: cell-based, human
Description: (§1) MDA-MB-231 cells were inoculated in a 6-well plate containing a cover glass. On the second day, the cells were treated with different concentrations of the complex (0, 5, and 10 μM) for 24 h. The cells were fixed with 4% paraformaldehyde for 20 min, and then blocked with 5% BSA for 0.5 h at room temperature. The 1:500 anti-γH2AX antibody was diluted with 5% FBS and incubated for 1 h. The cells were incubated with lgG (H + L) for 0.5 h and treated with DAPI for 5 min. The cover glass was then transferred to a specified microscope slide and photographed with laser confocal microscopy. The antibodies used in immunofluorescence to determine invasion and metastasis were anti-paxillin antibody (ab32115), Fluor 488-conjugated IgG (H + L) (Proteintech), and rhodamine phalloidin (Amanita phalloidin, cytoskeleton).

MDA-MB-231 cells [1] = assay: Immunofluorescence of paxillin and F-actin; format: cell-based, human; details: 24 h
Description: as §1

HepG2 cells = assay: MTT assay, HepG2 cells; format: cell-based, human; details: 72 h, read-out: Inhibitory Effect (IC50/μM) HepG2
Description: (§2) Liver cancer HepG2 cells, lung cancer A549 cells, breast cancer MCF-7 and MDA-MB-231 cells, human nasopharyngeal carcinoma CNE-1 cells, and human immortalized keratinocyte HaCaT cells were seeded in 96-well plates (5 × 10^3 cells per well) and cultured at 37 °C and 5% CO2 for 24 h. Cells were treated with different concentrations of the complexes (0, 1.5625, 3.125, 6.25, 12.5, 25, 50, and 100 µM) for 72 h. After adding 20 µL MTT (5 mg/mL) solution to each well, the cells were incubated for 4 h, and then 150 µL DMSO was added to each well. The optical density of each well was detected by a microplate reader at a wavelength of 570 nm. The cell survival rate (%) = A(experimental group)/A(control group) × 100%, and the IC50 value was analyzed and calculated based on the survival rate.

MDA-MB-231 cells [2] = assay: ICP detection of Ru content in cells; format: cell-based, human; details: 24 h, control 0.4
Description: MDA-MB-231 cells were seeded in 10 cm cell culture dishes. After cell adherence, the cells were treated with the drug (0, 2.5, 5, and 10 μM) for 24 h. After 24 h, the cells were washed with PBS three times and collected by trypsin. The number of collected cells was counted by a cell counter. Then, the cells were digested in 1 mL HNO3 solution by microwave digestion at 120 °C for 3 min, and 1 mL of this solution was transferred to a 5 mL volumetric flask, diluted with distilled water to volume, and mixed. The Ru content of these solutions was analyzed by an ICP optical emission spectrometer (NCS, Plasma 2000). All measurements were repeated three times.

CNE-1 cells = assay: MTT assay, CNE-1 cells; format: cell-based, human; details: 72 h, read-out: Inhibitory Effect (IC50/μM) CNE-1
Description: as §2

MDA-MB-231 cells [3] = assay: Comet assay; format: cell-based, human; details: 5 and 10 μM
Description: DNA damage was detected by single-cell gel electrophoresis by using the Comet assay kit (Trevigen). MDA-MB-231 cells were added to a culture dish containing the medium. After treatment with different concentrations of the complexes (0, 5, and 10 μM) at 37 °C for 72 h, the cells were collected and washed with PBS three times. A solution of the cell suspension and melted low-melting-point agarose gel was mixed at a volume ratio of 1:7, and the equilateral sample was immediately transferred to a Comet Slide TM slide. The slides were washed twice with PBS, placed into an electrophoresis tank containing comet electrophoresis solution, and electrophoresed at 25 V for 30 min. After electrophoresis, the slides were washed twice with PBS. Finally, the cells were stained with EB and observed under a fluorescence microscope. Cells were randomly selected from each slide to take photos, and the tail moment was analyzed.

MDA-MB-231 cells [4] = assay: Zebrafish xenograft breast cancer model; format: in vivo; details: 2.5, 5, and 10 μM, 72 h
Description: The zebrafish model of transplanted breast cancer was constructed in accordance with the methods in the literature. Juvenile 48 h old breast cancer model zebrafish were placed in 48-well plates (n = 10), and 0.2 mL aquaculture water without or with Δ−3 (0, 2.5, 5, and 10 μM) was added for culture. Images were captured every 24 h using a fluorescence microscope to study the inhibitory effect of Δ−3 on zebrafish with breast cancer. In addition, the mean number of sprout and mean length of sprout in subintestinal vessels (SIVs) were analyzed by ImageProPlus software. The ethical protocols for the in vivo research on zebrafish complied with relevant laws.

- IC50 (HepG2 cells): 37.8 ± 0.6 µM
- Ru content in cells (MDA-MB-231 cells [2]; 2.5 μM): 0.52 ng/mL per 1 × 10^4 cells
- Ru content in cells (MDA-MB-231 cells [2]; 5 μM): 1.82 ng/mL per 1 × 10^4 cells
- Ru content in cells (MDA-MB-231 cells [2]; 10 μM): 2.91 ng/mL per 1 × 10^4 cells
Substance: Δ-[Ru(bpy)2(3-NBEDPPZ)](ClO4)2 [Δ−3]
- ΔTm (c-myc G-quadruplex DNA; complex 0.5 μM): approximately 3.5 °C
- ΔTm (c-myc G-quadruplex DNA; complex 1.0 μM): ~7.2 °C
- γ-H2AX production (γ-H2AX; 5 μM): Green fluorescence was observed
- γ-H2AX production (γ-H2AX; 10 μM): the DNA damage was serious
- focal adhesions (paxillin) and stress fibers (F-actin) (MDA-MB-231 cells [1]): the amount of paxillin decreased
- IC50 (CNE-1 cells): 40.9 ± 0.53 µM
- DNA damage (comet appearance) (MDA-MB-231 cells [3]): cometary shapes appeared
- number of MDA-MB-231 cells in zebrafish (MDA-MB-231 cells [4]): significantly lower than that of the control
